From ChEMBL document CHEMBL1687773 (Antimicrob Agents Chemother, 2010)
Activity calls are given as the source filed them. The calls are words filed in the database; no cut-off is given here.

Assays:
[1] = system: Human immunodeficiency virus type 1 reverse transcriptase (Human immunodeficiency virus 1), Q72547 [K103N]; assay: Binding affinity to HIV1 HXB2 reverse transcriptase K103N mutant by protein X-ray crystallography analysis
[2] = Inhibition of human phosphodiesterase 4
[3] = molecular target: 5-hydroxytryptamine receptor 1A (Homo sapiens) (UniProt P08908); assay: Inhibition of human 5-HT1A receptor at up to 10 uM
Chain of 5-hydroxytryptamine receptor 1A (Homo sapiens) (P08908 whole entry): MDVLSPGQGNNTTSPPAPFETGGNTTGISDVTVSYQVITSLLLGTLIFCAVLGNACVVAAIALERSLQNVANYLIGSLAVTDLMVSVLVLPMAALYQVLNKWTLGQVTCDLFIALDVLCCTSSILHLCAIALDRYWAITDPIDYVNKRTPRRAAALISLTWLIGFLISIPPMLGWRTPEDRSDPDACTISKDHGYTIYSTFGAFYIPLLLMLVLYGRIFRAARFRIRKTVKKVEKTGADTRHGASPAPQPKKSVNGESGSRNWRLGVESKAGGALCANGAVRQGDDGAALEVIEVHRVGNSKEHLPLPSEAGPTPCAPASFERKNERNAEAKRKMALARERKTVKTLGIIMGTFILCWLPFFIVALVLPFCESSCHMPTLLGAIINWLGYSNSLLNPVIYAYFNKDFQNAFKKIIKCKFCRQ

[4] = molecular target: Human immunodeficiency virus type 1 reverse transcriptase (Human immunodeficiency virus 1, UniProt Q72547); assay: Inhibition of HIV1 reverse transcriptase activity by primer extension assay
[5] = molecular target: D(2) dopamine receptor (Homo sapiens) (UniProt P14416); assay: Inhibition of human dopamine D2 receptor at up to 10 uM
Chain of D(2) dopamine receptor (Homo sapiens) (P14416 whole entry): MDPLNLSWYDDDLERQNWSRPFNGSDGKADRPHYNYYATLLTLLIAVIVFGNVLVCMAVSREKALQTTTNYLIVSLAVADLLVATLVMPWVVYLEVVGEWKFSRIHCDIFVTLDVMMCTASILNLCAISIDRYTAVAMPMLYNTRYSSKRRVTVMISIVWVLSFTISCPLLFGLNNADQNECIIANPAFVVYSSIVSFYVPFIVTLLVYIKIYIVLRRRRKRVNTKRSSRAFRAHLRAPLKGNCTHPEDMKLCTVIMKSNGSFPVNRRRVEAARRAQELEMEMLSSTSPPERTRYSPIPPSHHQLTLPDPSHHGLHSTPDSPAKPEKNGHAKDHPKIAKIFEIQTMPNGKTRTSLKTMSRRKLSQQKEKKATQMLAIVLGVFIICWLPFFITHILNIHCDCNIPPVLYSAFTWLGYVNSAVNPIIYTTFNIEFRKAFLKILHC

[6] = Ratio of CC30 for human PBL cells to EC90 for HIV1
[7] = system: Human immunodeficiency virus 1; assay: Antiviral activity against HIV1 NL4-3 harboring reverse transcriptase M184V mutant infected in human HeLaP4 cells assessed as inhibition of viral replication after 5 days by beta-galactosidase reporter assay; type: functional, organism-based
[8] = system: Human immunodeficiency virus 1; assay: Ratio of EC50 for wild type HIV1 NL4-3 to EC50 for HIV1 NL4-3 harboring reverse transcriptase M184V mutant; type: functional
[9] = system: Human immunodeficiency virus type 1 reverse transcriptase (Human immunodeficiency virus 1), Q72547 [Y188C]; assay: Inhibition of HIV1 histidine-tagged reverse transcriptase Y188C mutant activity by primer extension assay
[10] = molecular target: Amine oxidase [flavin-containing] A (Homo sapiens, UniProt P21397); assay: Inhibition of human MAO-A at up to 10 uM
Chain of Amine oxidase [flavin-containing] A (P21397 whole entry): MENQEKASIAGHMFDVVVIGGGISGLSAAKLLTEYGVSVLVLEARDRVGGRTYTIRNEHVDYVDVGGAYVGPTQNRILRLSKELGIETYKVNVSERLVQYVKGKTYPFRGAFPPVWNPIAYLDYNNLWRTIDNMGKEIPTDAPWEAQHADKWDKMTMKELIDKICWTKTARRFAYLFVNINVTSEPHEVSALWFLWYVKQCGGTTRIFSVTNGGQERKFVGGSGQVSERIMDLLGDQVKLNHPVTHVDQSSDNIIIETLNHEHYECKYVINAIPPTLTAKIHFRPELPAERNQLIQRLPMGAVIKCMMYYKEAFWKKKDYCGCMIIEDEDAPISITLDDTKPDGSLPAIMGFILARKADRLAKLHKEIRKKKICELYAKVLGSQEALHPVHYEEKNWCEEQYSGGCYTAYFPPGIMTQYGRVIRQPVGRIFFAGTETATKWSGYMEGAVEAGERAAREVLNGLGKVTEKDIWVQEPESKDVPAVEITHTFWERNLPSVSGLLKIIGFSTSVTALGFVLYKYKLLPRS

[11] = system: Human immunodeficiency virus 1; assay: Ratio of EC50 for wild type HIV1 NL4-3 to EC50 for HIV1 NL4-3 harboring reverse transcriptase E138K mutant; type: functional
[12] = molecular target: Beta-2 adrenergic receptor (Homo sapiens) (UniProt P07550); assay: Inhibition of human adrenergic beta2 receptor at up to 10 uM
Chain of Beta-2 adrenergic receptor (Homo sapiens) (P07550 whole entry, looked up): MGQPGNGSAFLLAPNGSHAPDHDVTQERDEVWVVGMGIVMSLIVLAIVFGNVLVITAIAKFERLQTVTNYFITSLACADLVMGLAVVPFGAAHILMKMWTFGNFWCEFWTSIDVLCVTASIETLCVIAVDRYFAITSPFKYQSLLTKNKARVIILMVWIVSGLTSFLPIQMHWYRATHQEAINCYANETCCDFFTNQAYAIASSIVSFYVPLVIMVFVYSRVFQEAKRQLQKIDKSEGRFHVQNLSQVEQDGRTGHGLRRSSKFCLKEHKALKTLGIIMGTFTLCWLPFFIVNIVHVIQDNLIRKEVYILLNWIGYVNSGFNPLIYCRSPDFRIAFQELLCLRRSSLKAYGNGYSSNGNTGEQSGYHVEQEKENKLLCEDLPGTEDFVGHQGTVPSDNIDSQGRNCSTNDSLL

[13] = system: Human immunodeficiency virus 1; assay: Antiviral activity against HIV1 NL4-3 harboring reverse transcriptase V108I, H221Y, F227F/L, M230M/I mutant infected in human SupT1 cells derived from 11 viral passages with lersivirine assessed as inhibition of viral replication after 21 days relative to drug sensitive HIV1 NL4-3; type: functional, SUP-T1
[14] = system: Human immunodeficiency virus 1; assay: Antiviral activity against HIV1 NL4-3 infected in human SupT1 cells derived from 11 viral passages assessed as inhibition of viral replication after 21 days relative to drug sensitive HIV1 NL4-3; type: functional, SUP-T1
[15] = organism: Homo sapiens; assay: Inhibition of human neuronal nicotinic […] receptor at up to 10 uM
[16] = system: Human immunodeficiency virus 1; assay: Ratio of EC50 for wild type HIV1 NL4-3 to EC50 for HIV1 NL4-3 harboring reverse transcriptase P236L mutant; type: functional
[17] = molecular target: Type-1 angiotensin II receptor (Homo sapiens) (UniProt P30556); assay: Inhibition of human AT1 receptor at up to 10 uM
Chain of Type-1 angiotensin II receptor (Homo sapiens) (P30556 whole entry): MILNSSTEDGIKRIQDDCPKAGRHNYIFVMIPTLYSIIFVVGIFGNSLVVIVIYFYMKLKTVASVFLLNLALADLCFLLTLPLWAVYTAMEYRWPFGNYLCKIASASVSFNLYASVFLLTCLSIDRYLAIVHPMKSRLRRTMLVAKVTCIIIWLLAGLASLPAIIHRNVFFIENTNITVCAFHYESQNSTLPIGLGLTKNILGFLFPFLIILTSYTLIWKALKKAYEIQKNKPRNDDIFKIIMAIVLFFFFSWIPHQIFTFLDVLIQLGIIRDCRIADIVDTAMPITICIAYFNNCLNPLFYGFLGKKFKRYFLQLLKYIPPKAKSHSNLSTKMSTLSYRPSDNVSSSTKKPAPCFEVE

[18] = system: Human immunodeficiency virus 1; assay: Antiviral activity against HIV1 NL4-3 harboring reverse transcriptase L100I, K103Q, H221H/Y mutant infected in human SupT1 cells derived from 11 viral passages with efavirenz assessed as inhibition of viral replication after 21 days relative to drug sensitive HIV1 NL4-3; type: functional, SUP-T1
[19] = Cytotoxicity against human HeLaP4 cells at 200 uM by aqueous nonradioactive cell proliferation assay; type: cell-based; conditions: helap4, 200 µM
[20] = system: Human immunodeficiency virus 1; assay: Antiviral activity against HIV1 NL4-3 harboring reverse transcriptase V108I, E138K, F227F/L mutant infected in human SupT1 cells derived from 11 viral passages with lersivirine assessed as inhibition of viral replication after 21 days relative to drug sensitive HIV1 NL4-3; type: functional, SUP-T1
[21] = system: Human immunodeficiency virus 1; assay: Antiviral activity against HIV1 NL4-3 harboring reverse transcriptase E233V mutant infected in human HeLaP4 cells assessed as inhibition of viral replication after 5 days by beta-galactosidase reporter assay; type: functional, organism-based
[22] = system: Human immunodeficiency virus 1; assay: Antiviral activity against HIV1 NL4-3 harboring reverse transcriptase L100I mutant infected in human HeLaP4 cells assessed as inhibition of viral replication after 5 days by beta-galactosidase reporter assay; type: functional, organism-based
[23] = system: Human immunodeficiency virus 1; assay: Antiviral activity against HIV1 NL4-3 harboring reverse transcriptase Y188C mutant infected in human HeLaP4 cells assessed as inhibition of viral replication after 5 days by beta-galactosidase reporter assay; type: functional, organism-based
[24] = system: Human immunodeficiency virus 1; assay: Antiviral activity against wild type HIV1 NL4-3 infected in human HeLaP4 cells assessed as inhibition of viral replication after 5 days by beta-galactosidase reporter assay; type: functional, organism-based; conditions: Human immunodeficiency virus 1, NL4-3, HeLaP4, 120 h
[25] = molecular target: Histamine H1 receptor (Homo sapiens) (UniProt P35367); assay: Inhibition of human histamine H1 receptor at up to 10 uM
Chain of Histamine H1 receptor (Homo sapiens) (P35367 whole entry): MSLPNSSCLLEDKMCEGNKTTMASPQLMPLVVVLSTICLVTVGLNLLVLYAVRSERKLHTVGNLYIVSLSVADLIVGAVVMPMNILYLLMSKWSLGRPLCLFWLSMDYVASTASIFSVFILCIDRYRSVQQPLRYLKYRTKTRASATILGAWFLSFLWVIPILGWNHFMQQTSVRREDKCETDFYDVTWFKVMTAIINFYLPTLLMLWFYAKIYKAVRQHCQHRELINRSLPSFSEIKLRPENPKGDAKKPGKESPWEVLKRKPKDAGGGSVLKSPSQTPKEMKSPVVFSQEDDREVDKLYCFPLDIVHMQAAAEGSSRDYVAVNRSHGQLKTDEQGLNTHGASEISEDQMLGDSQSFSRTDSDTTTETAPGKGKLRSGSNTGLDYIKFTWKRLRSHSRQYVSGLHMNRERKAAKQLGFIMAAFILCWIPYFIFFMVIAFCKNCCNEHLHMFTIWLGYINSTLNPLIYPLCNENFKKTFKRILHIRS

[26] = molecular target: Adrenergic receptor alpha-1 (Homo sapiens) (UniProt P35348+P25100+P35368); assay: Inhibition of human adrenergic alpha1 receptor at up to 10 uM
[27] = system: Human immunodeficiency virus 1; assay: Antiviral activity against HIV1 NL4-3 harboring reverse transcriptase F227L mutant infected in human HeLaP4 cells assessed as inhibition of viral replication after 5 days by beta-galactosidase reporter assay; type: functional, organism-based
[28] = organism: Homo sapiens; assay: Inhibition of human central benzodiazepine receptor at up to 10 uM
[29] = system: Human immunodeficiency virus 1; assay: Antiviral activity against HIV1 NL4-3 harboring reverse transcriptase K101E mutant infected in human HeLaP4 cells assessed as inhibition of viral replication after 5 days by beta-galactosidase reporter assay; type: functional, organism-based
[30] = system: Human immunodeficiency virus 1; assay: Ratio of EC50 for wild type HIV1 NL4-3 to EC50 for HIV1 NL4-3 harboring reverse transcriptase F227C mutant; type: functional
[31] = system: Human immunodeficiency virus 1; assay: Antiviral activity against HIV1 NL4-3 harboring reverse transcriptase P236L mutant infected in human HeLaP4 cells assessed as inhibition of viral replication after 5 days by beta-galactosidase reporter assay; type: functional, organism-based
[32] = system: Human immunodeficiency virus type 1 reverse transcriptase (Human immunodeficiency virus 1), Q72547 [Y181I]; assay: Inhibition of HIV1 histidine-tagged reverse transcriptase Y181I mutant activity by primer extension assay
[33] = system: Human immunodeficiency virus type 1 reverse transcriptase (Human immunodeficiency virus 1), Q72547 [E138K]; assay: Inhibition of HIV1 histidine-tagged reverse transcriptase E138K mutant activity by primer extension assay
[34] = system: Human immunodeficiency virus 1; assay: Antiviral activity against HIV1 NL4-3 harboring reverse transcriptase V108I mutant infected in human HeLaP4 cells assessed as inhibition of viral replication after 5 days by beta-galactosidase reporter assay; type: functional, organism-based
[35] = system: Human immunodeficiency virus type 1 reverse transcriptase (Human immunodeficiency virus 1), Q72547 [K103N]; assay: Inhibition of HIV1 histidine-tagged reverse transcriptase K103N mutant activity by primer extension assay
[36] = system: Human immunodeficiency virus 1; assay: Ratio of EC50 for wild type HIV1 NL4-3 to EC50 for HIV1 NL4-3 harboring reverse transcriptase F227L mutant; type: functional
[37] = system: Human immunodeficiency virus 1; assay: Ratio of EC50 for wild type HIV1 NL4-3 to EC50 for HIV1 NL4-3 harboring reverse transcriptase V106A, F227L mutant; type: functional
[38] = system: Human immunodeficiency virus 1; assay: Ratio of EC50 for wild type HIV1 NL4-3 to EC50 for HIV1 NL4-3 harboring reverse transcriptase L234I mutant; type: functional

CCc1nn(CCO)c(CC)c1Oc1cc(C#N)cc(C#N)c1 [LERSIVIRINE]
Activity [1]: Active
IC50 [2]: 3000 nM
inhibition [3]: inactive
IC50 [4]: 118 nM
inhibition [5]: inactive
Ratio [6]: 9818
inhibition [7]: Active
Ratio EC50 [8]: 10
inhibition [9]: Active
inhibition (INH) [10]: Not Active
Ratio EC50 [11]: 10
inhibition [12]: inactive
fold change (FC) [13]: 60.5
fold change (FC) [14]: 0.6
inhibition [15]: inactive
Ratio EC50 [16]: 10
inhibition [17]: inactive
fold change (FC) [18]: 5
Activity [19]: Non-toxic
fold change (FC) [20]: 143
inhibition [21]: Active
inhibition [22]: Active
inhibition [23]: Active
EC50 [24]: 3.96 nM
inhibition [25]: inactive
inhibition [26]: inactive
inhibition [27]: Active
inhibition [28]: inactive
inhibition [29]: Active
Ratio EC50 [30]: 55
inhibition [31]: Active
inhibition [32]: Active
inhibition [33]: Active
inhibition [34]: Active
inhibition [35]: Active
Ratio EC50 [36]: 10
Ratio EC50 [37]: >200
Ratio EC50 [38]: 20
